Reference: ChEMBL document CHEMBL3352654, “Synthesis, biological evaluation and SAR analysis of O-alkylated analogs of quercetin for anticancer” (Bioorg Med Chem Lett, 2014)

Tests used:
Assay type in all cases: functional, cell-based
NCI-H522 = experiment: Anticancer activity against human NCI-H522 cells by HTS assay
[1] = Anticancer activity against human LOXIMVI cells by HTS assay; settings: LOX IMVI
[2] = Anticancer activity against human M4E cells by HTS assay
[3] = Anticancer activity against human H1299 cells by HTS assay; settings: NCI-H1299
[4] = Anticancer activity against human […] cells by HTS assay
[5] = Anticancer activity against human NCI-H1944 cells by HTS assay
HOP-62 = experiment: Anticancer activity against human HOP62 cells by HTS assay
[6] = Anticancer activity against human 292G cells by HTS assay
[7] = Anticancer activity against human Calu1 cells by HTS assay; settings: Calu-1
A549 = experiment: Anticancer activity against human A549 cells by HTS assay
NCI-H1792 = experiment: Anticancer activity against human NCI-H1792 cells by HTS assay
HeLa = experiment: Anticancer activity against human HeLa cells by HTS assay
M14 = experiment: Anticancer activity against human M14 cells by HTS assay
[8] = Anticancer activity against human H460 cells by HTS assay; settings: NCI-H460
[9] = Anticancer activity against human SKBR cells by HTS assay
NCI-H157 = experiment: Anticancer activity against human NCI-H157 cells by HTS assay

| Compound | IC50 (NCI-H522) [µM] | IC50 [1] [µM] | IC50 [2] [µM] | IC50 [3] [µM] | IC50 [4] [µM] | IC50 [5] [µM] | IC50 (HOP-62) [µM] | IC50 [6] [µM] | IC50 [7] [µM] | IC50 (A549) [µM] | IC50 (NCI-H1792) [µM] | IC50 (HeLa) [µM] | IC50 (M14) [µM] | IC50 [8] [µM] | IC50 [9] [µM] | IC50 (NCI-H157) [µM] |
| --- | --- | --- | --- | --- | --- | --- | --- | --- | --- | --- | --- | --- | --- | --- | --- | --- |
| COc1cc(O)c2c(=O)c(O)c(-c3ccc(OC)c(O)c3)oc2c1 [OMBUINE] | 17.4 | > 50 | 30.7 | 34.8 | > 50 | 2.86 | 12.1 | 40.7 | > 50 | 3.07 | 3.36 | 1.49 | 4.29 | 2.75 | 8.3 | 3.45 |
| O=c1c(O)c(-c2ccc(O)c(O)c2)oc2cc(O)cc(O)c12 [QUERCETIN] | 5.77 | 4.65 | 21.7 | 13.6 | 16.9 | 10.2 | 7.52 | > 50 | 23.6 | 6.2 | 3.85 | 3.56 | 12.8 | 9.62 | 16.7 | 6 |
| COc1ccc(-c2oc3cc(O)cc(O)c3c(=O)c2O)cc1O [TAMARIXETIN] | > 50 | > 50 | 19.9 | 22 | 7.57 | 3.86 | 9.93 | 12.5 | 24.9 | 2.63 | 4.06 | 1.81 | 14.8 | 4.45 | 7.97 | 3.04 |
| CCOc1cc(O)c2c(=O)c(O)c(-c3ccc(OCC)c(O)c3)oc2c1 | 7.21 | 49.4 | > 50 | 21.8 | 25.5 | 42.4 | 30.2 | > 50 | > 50 | 22.6 | > 50 | 20.2 | > 50 | 9.7 | > 50 | > 50 |
| CCOc1c(-c2ccc(O)c(O)c2)oc2cc(O)cc(O)c2c1=O | > 50 | > 50 | > 50 | > 50 | > 50 | 0.39 | > 50 | > 50 | > 50 | > 50 | > 50 | > 50 | > 50 | > 50 | > 50 | > 50 |
| CCOc1cc(O)c2c(=O)c(OCC)c(-c3ccc(OCC)c(OCC)c3)oc2c1 | > 50 | 19.4 | 21.4 | 24.9 | > 50 | > 50 | 44 | > 50 | > 50 | 47.6 | > 50 | > 50 | > 50 | 22.1 | > 50 | > 50 |
| COc1cc(O)c2c(=O)c(OC)c(-c3ccc(O)c(O)c3)oc2c1 | > 50 | 24.1 | 21.3 | 15.6 | > 50 | 0.46 | 13.2 | 24 | 39.6 | 5.4 | 19.7 | 11.1 | 21.7 | 7.02 | 5.28 | 13 |
| CCCOc1cc(O)c2c(=O)c(OCCC)c(-c3ccc(OCCC)c(OCCC)c3)oc2c1 | > 50 | > 50 | > 50 | > 50 | > 50 | > 50 | > 50 | > 50 | > 50 | 47.9 | > 50 | > 50 | > 50 | > 50 | > 50 | > 50 |
| CCCCOc1ccc(-c2oc3cc(O)cc(O)c3c(=O)c2O)cc1O | 17.7 | 28.8 | 17.1 | 16 | 18.2 | 5.85 | 12.4 | 9.89 | 25.3 | 5.44 | 10.5 | 9.48 | 19.4 | 6.84 | 6.72 | 6.1 |
| CCCOc1c(-c2ccc(O)c(O)c2)oc2cc(O)cc(O)c2c1=O | 1.4 | 2.38 | 1.9 | 6.03 | 3.02 | 0.91 | 2.44 | 2.11 | 7.08 | 0.79 | 3.13 | 0.57 | 2.26 | 1.69 | 0.45 | 0.8 |

The remaining lines, values ahead:

| IC50 (NCI-H522) [µM] | IC50 [1] [µM] | IC50 [2] [µM] | IC50 [3] [µM] | IC50 [4] [µM] | IC50 [5] [µM] | IC50 (HOP-62) [µM] | IC50 [6] [µM] | IC50 [7] [µM] | IC50 (A549) [µM] | IC50 (NCI-H1792) [µM] | IC50 (HeLa) [µM] | IC50 (M14) [µM] | IC50 [8] [µM] | IC50 [9] [µM] | IC50 (NCI-H157) [µM] | Compound |
| --- | --- | --- | --- | --- | --- | --- | --- | --- | --- | --- | --- | --- | --- | --- | --- | --- |
| 49.5 | > 50 | 27.4 | 46.5 | 31.1 | 21.4 | 21.9 | 28.5 | 26.5 | 13.9 | 13.3 | 21.6 | 25.4 | 12.2 | 18 | 10.2 | CCCOc1ccc(-c2oc3cc(O)cc(O)c3c(=O)c2O)cc1O |
| > 50 | 2.55 | 11.2 | 5.05 | 8.92 | 1.17 | 4.68 | 8.75 | 5.46 | 1.13 | 6.03 | 6.09 | 3.47 | 3.05 | 4.58 | 5.92 | CCCCOc1cc(O)c2c(=O)c(OCCCC)c(-c3ccc(O)c(O)c3)oc2c1 |
| 22.1 | 1.14 | 6.18 | 1.77 | 2.85 | 1.78 | 4.45 | 4.11 | 1.5 | 1.24 | 1 | 1.2 | 0.94 | 1.03 | 3.19 | 0.67 | CCOc1ccc(-c2oc3cc(O)cc(O)c3c(=O)c2O)cc1O |
| > 50 | > 50 | > 50 | > 50 | > 50 | > 50 | > 50 | > 50 | > 50 | 48.4 | > 50 | > 50 | > 50 | > 50 | > 50 | > 50 | CCCCOc1cc(O)c2c(=O)c(OCCCC)c(-c3ccc(OCCCC)c(OCCCC)c3)oc2c1 |
| 8.14 | 3.68 | 5.77 | 4.84 | 5.63 | 4.42 | 3.28 | 5.31 | 9.39 | 4.02 | 3.63 | 5.18 | 7.61 | 1.14 | 4.72 | 0.84 | CCCOc1cc(O)c2c(=O)c(O)c(-c3ccc(OCCC)c(O)c3)oc2c1 |
| > 50 | 0.39 | > 50 | 10.5 | > 50 | > 50 | > 50 | > 50 | 6.53 | > 50 | > 50 | 46.4 | 0.38 | > 50 | > 50 | > 50 | COc1cc(O)c2c(=O)c(OC)c(-c3ccc(OC)c(OC)c3)oc2c1 [RETUSIN] |
| 20.2 | 46 | 16.2 | > 50 | > 50 | 21.9 | 20.1 | > 50 | > 50 | 20.8 | > 50 | 19.5 | 37.1 | 12.8 | 10.8 | 18.6 | COc1cc(O)c2c(=O)c(OC)c(-c3ccc(OC)c(O)c3)oc2c1 [AYANIN] |
| 12.6 | 26.3 | 18.9 | > 50 | 31.7 | 7.04 | 21 | 28.9 | > 50 | 13.4 | 4.57 | 10.6 | 25.6 | 19.7 | 9.18 | 6.32 | CCCCOc1c(-c2ccc(O)c(O)c2)oc2cc(O)cc(O)c2c1=O |
| > 50 | 15.2 | 20.4 | 12.8 | 29.1 | 10.1 | 10.6 | 17.2 | 37.4 | 1.19 | 2.51 | 0.91 | 20.3 | 5.25 | 6.26 | 8.09 | CCOc1cc(O)c2c(=O)c(OCC)c(-c3ccc(O)c(O)c3)oc2c1 |
| > 50 | > 50 | 18 | 48.5 | > 50 | 4.72 | 36.3 | > 50 | > 50 | 22.6 | > 50 | 14.6 | > 50 | 15.6 | 6.66 | > 50 | CCOc1cc(O)c2c(=O)c(OCC)c(-c3ccc(OCC)c(O)c3)oc2c1 |
